Reference: ChEMBL document CHEMBL1909046, “DrugMatrix in vitro pharmacology data”

Assays:
Thromboxane-A synthase = molecular target: T1, Thromboxane-A synthase (Homo sapiens, UniProt P24557); experiment: biochemical; format: tissue-based, Platelet; conditions: platelet;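 also: enzyme inhibition assay with PGH2 supplied as substrate; in other assays of this panel Not Active means under 50% inhibition at 10 µM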
T1 sequence (P24557 whole entry): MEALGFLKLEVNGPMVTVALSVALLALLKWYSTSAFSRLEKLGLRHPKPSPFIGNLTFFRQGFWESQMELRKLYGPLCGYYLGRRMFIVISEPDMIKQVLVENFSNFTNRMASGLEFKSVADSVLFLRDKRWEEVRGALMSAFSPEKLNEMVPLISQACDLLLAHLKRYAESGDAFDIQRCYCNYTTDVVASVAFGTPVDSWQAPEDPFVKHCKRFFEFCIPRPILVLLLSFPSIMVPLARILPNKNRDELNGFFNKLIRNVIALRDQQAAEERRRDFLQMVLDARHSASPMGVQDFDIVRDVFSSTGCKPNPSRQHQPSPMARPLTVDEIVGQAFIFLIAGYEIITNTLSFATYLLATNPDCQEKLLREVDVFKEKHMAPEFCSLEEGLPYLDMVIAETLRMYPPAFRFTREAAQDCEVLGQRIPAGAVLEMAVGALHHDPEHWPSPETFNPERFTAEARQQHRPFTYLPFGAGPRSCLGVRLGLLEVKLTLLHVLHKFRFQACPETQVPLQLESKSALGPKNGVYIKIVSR

[1] = molecular target: T2, Alpha-1D adrenergic receptor (Homo sapiens, UniProt P25100); format: cell membranes, HEK293, Membrane; also: in other assays of this panel Not Active means under 50% inhibition at 10 µM
T2 sequence (P25100 whole entry): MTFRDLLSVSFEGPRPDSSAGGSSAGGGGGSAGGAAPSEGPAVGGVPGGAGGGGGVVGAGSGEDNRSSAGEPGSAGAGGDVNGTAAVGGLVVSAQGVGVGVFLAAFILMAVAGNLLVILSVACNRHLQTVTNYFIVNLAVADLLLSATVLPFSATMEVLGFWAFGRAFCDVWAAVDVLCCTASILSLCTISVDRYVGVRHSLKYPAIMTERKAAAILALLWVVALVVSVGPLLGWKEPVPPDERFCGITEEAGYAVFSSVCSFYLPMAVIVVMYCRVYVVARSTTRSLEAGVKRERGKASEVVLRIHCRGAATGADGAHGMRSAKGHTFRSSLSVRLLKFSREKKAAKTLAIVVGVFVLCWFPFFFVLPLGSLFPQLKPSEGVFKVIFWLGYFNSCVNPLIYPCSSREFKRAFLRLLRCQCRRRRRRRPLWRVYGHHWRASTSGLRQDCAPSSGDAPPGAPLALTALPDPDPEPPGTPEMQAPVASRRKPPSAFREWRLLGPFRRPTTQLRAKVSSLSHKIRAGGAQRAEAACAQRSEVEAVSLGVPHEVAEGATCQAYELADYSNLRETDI

[2] = molecular target: Protein phosphatase 3 catalytic subunit alpha (Homo sapiens, UniProt Q08209); parameters: species or system Escherichia coli;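 also: inhibition of calcineurin (PP2B) enzyme activity, measured with DiFMUP as the substrate; in other assays of this panel Not Active means under 50% inhibition at 10 µM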
[3] = molecular target: Platelet-activating factor receptor (Homo sapiens, UniProt P25105); format: tissue-based; also: in other assays of this panel Not Active means under 50% inhibition at 10 µM
Platelet-activating factor receptor, sequence (P25105 whole entry): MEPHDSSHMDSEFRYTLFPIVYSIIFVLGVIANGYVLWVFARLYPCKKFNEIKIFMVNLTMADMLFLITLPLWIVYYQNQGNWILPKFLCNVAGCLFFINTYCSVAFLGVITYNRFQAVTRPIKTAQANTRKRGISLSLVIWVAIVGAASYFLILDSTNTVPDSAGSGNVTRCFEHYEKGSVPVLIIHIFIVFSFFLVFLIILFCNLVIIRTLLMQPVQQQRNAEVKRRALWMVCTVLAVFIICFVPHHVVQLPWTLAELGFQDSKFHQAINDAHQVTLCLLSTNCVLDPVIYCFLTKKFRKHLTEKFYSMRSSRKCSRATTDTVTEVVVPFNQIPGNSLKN

[4] = DRUGMATRIX: Tumor Necrosis Factor (TNF), Non-Selective radioligand binding (ligand: [125I] TNF-alpha); format: cell membranes, Membrane; conditions: u-937; Not Active = under 50% inhibition at 10 µM
[5] = molecular target: 5-hydroxytryptamine receptor 1B (Rattus norvegicus, UniProt P28564); format: cell membranes, Wistar, Cerebral cortex, Membrane; also: in other assays of this panel Not Active means under 50% inhibition at 10 µM
5-hydroxytryptamine receptor 1B, sequence (P28564 whole entry): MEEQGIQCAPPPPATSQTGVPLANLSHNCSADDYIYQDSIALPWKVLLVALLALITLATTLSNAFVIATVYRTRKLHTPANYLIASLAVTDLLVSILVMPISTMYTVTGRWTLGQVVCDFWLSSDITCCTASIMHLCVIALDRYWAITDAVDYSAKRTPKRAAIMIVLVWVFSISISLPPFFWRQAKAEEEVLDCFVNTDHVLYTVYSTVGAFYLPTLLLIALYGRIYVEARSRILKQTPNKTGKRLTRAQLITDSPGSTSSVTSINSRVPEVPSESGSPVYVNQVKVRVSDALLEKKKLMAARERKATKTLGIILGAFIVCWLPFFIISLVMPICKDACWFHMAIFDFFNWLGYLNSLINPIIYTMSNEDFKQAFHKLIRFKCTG

CO[C@@H]1[C@@H](OC)[C@H](C)[C@@](O)(CC(=O)O)O[C@H]1[C@H](C)[C@H]1O[C@@]2(CC[C@@](C)([C@H]3CC[C@@](C)([C@@H]4O[C@@H]([C@H]5O[C@](C)(O)[C@H](C)C[C@@H]5C)C[C@@H]4O[C@@H]4C[C@H](OC)[C@@H](OC)[C@H](C)O4)O3)O2)C[C@H](O)[C@H]1C [MADURAMICIN ACID]
554 nM: Ki ([1]; read-out: Ki)
Not Active: IC50 (Thromboxane-A synthase) | IC50 [2] | IC50 [3] | IC50 [4] | Ki [4]
1.35 nM: Ki ([5]; read-out: Ki)
2.98 nM: IC50 ([5]; read-out: IC50)
1130 nM: IC50 ([1]; read-out: IC50)

COc1c2occc2cc2ccc(=O)oc12 [METHOXSALEN]
Not Active: IC50 (Thromboxane-A synthase) | IC50 ([1]; hek293) | IC50 [2] | IC50 [3] | IC50 [4] | Ki [4] | IC50 [5]

C[C@H]1C[C@@H]2[C@H]([C@@H](O)C[C@@]3(C)[C@H]2CC[C@]3(O)C(=O)CO)[C@@]2(C)C=CC(=O)C=C12 [METHYLPREDNISOLONE]
Not Active: IC50 (Thromboxane-A synthase) | IC50 ([1]; hek293) | IC50 [2] | IC50 [3] | IC50 [4] | Ki [4] | IC50 [5]

Cc1cccc(C)c1OCC(C)N (stereo not given) [MEXILETINE]
Not Active: IC50 (Thromboxane-A synthase) | IC50 ([1]; hek293) | IC50 [2] | IC50 [3] | IC50 [4] | Ki [4] | IC50 [5]

Nc1cc(N2CCCCC2)nc(N)[n+]1[O-] [MINOXIDIL]
Not Active: IC50 (Thromboxane-A synthase) | IC50 ([1]; hek293) | IC50 [2] | IC50 [3] | IC50 [4] | Ki [4] | IC50 [5]

CO[C@H]1/C=C/O[C@@]2(C)Oc3c(C)c(O)c4c(O)c(c(/C=N/N5CCN(C6CCCC6)CC5)c(O)c4c3C2=O)NC(=O)/C(C)=C\C=C\[C@H](C)[C@H](O)[C@@H](C)[C@@H](O)[C@@H](C)[C@H](OC(C)=O)[C@@H]1C [RIFAPENTINE]
Not Active: IC50 (Thromboxane-A synthase) | IC50 ([1]; hek293) | IC50 [2] | IC50 [3] | IC50 [4] | Ki [4] | IC50 [5]

CCCCOc1cc(CC2CNC(=O)N2)ccc1OC (stereo not given) [RO-201724]
Not Active: IC50 (Thromboxane-A synthase) | IC50 ([1]; hek293) | IC50 [2] | IC50 [3] | IC50 [4] | Ki [4] | IC50 [5]

CC[C@@H](C(=O)[C@@H](C)[C@@H](O)[C@H](C)[C@@H]1O[C@@H]([C@@H](CC)C(=O)O)CC[C@@H]1C)[C@H]1O[C@]2(C=C[C@@H](O)[C@]3(CC[C@@](C)([C@H]4CC[C@](O)(CC)[C@H](C)O4)O3)O2)[C@H](C)C[C@@H]1C [SALINOMYCIN]
Not Active: IC50 (Thromboxane-A synthase) | IC50 ([1]; hek293) | IC50 [2] | IC50 [3] | IC50 [4] | Ki [4] | IC50 [5]

O=C(Oc1ccccc1C(=O)O)c1ccccc1O [SALSALATE]
Not Active: IC50 (Thromboxane-A synthase) | IC50 ([1]; hek293) | IC50 [2] | IC50 [3] | IC50 [4] | Ki [4] | IC50 [5]

O=C(O)c1cn(-c2ccc(F)cc2)c2cc(N3CCNCC3)c(F)cc2c1=O [SARAFLOXACIN]
Not Active: IC50 (Thromboxane-A synthase) | IC50 ([1]; hek293) | IC50 [2] | IC50 [3] | IC50 [4] | Ki [4] | IC50 [5]

CC(C)NCC(O)c1ccc(NS(C)(=O)=O)cc1 (stereo not given) [SOTALOL]
Not Active: IC50 (Thromboxane-A synthase) | IC50 ([1]; hek293) | IC50 [2] | IC50 [3] | IC50 [4] | Ki [4] | IC50 [5]

O.O.O.O.O.O.[Cl-].[Cl-].[Sr+2] [STRONTIUM CHLORIDE HEXAHYDRATE]
Not Active: IC50 (Thromboxane-A synthase) | IC50 ([1]; hek293) | IC50 [2] | IC50 [3] | IC50 [4] | Ki [4] | IC50 [5]

O=C1C(CC[S+]([O-])c2ccccc2)C(=O)N(c2ccccc2)N1c1ccccc1 (stereo not given) [SULFINPYRAZONE]
Not Active: IC50 (Thromboxane-A synthase) | IC50 ([1]; hek293) | IC50 [2] | IC50 [3] | IC50 [4] | Ki [4] | IC50 [5]

NC(=O)N1C(=O)/C(=C(\O)c2cccs2)c2cc(Cl)ccc21 [TENIDAP]
Not Active: IC50 (Thromboxane-A synthase) | IC50 ([1]; hek293) | IC50 [2] | IC50 [3] | IC50 [4] | Ki [4] | IC50 [5]

COc1cc2nc(N3CCN(C(=O)C4CCCO4)CC3)nc(N)c2cc1OC (stereo not given) [TERAZOSIN]
Not Active: IC50 (Thromboxane-A synthase) | IC50 [2] | IC50 [3] | IC50 [4] | Ki [4] | IC50 [5]
8.36 nM: Ki ([1]; read-out: Ki)
17 nM: IC50 ([1]; read-out: IC50)

CN(C/C=C/C#CC(C)(C)C)Cc1cccc2ccccc12 [TERBINAFINE]
Not Active: IC50 (Thromboxane-A synthase) | IC50 ([1]; hek293) | IC50 [2] | IC50 [3] | IC50 [4] | Ki [4] | IC50 [5]

CCCCNc1ccc(C(=O)OCCN(C)C)cc1 [TETRACAINE]
Not Active: IC50 (Thromboxane-A synthase) | IC50 ([1]; hek293) | IC50 [2] | IC50 [3] | IC50 [4] | Ki [4] | IC50 [5]

Cn1c(=O)c2nc[nH]c2n(C)c1=O.O [THEOPHYLLINE]
Not Active: IC50 (Thromboxane-A synthase) | IC50 ([1]; hek293) | IC50 [2] | IC50 [3] | IC50 [4] | Ki [4] | IC50 [5]

CS(=O)(=O)c1ccc([C@@H](O)[C@@H](CO)NC(=O)C(Cl)Cl)cc1 [THIAMPHENICOL]
Not Active: IC50 (Thromboxane-A synthase) | IC50 ([1]; hek293) | IC50 [2] | IC50 [3] | IC50 [4] | Ki [4] | IC50 [5]

CCN(CC)CCNC(=O)c1cc(S(C)(=O)=O)ccc1OC [TIAPRIDE]
Not Active: IC50 (Thromboxane-A synthase) | IC50 ([1]; hek293) | IC50 [2] | IC50 [3] | IC50 [4] | Ki [4] | IC50 [5]

Clc1ccccc1CN1CCc2sccc2C1 [TICLOPIDINE]
Not Active: IC50 (Thromboxane-A synthase) | IC50 ([1]; hek293) | IC50 [2] | IC50 [3] | IC50 [4] | Ki [4] | IC50 [5]

NC1CCN(c2nc3c(cc2F)c(=O)c(C(=O)O)cn3-c2ccc(F)cc2F)C1 (stereo not given) [TOSUFLOXACIN]
Not Active: IC50 (Thromboxane-A synthase) | IC50 ([1]; hek293) | IC50 [2] | IC50 [3] | IC50 [4] | Ki [4] | IC50 [5]

O=C(Nc1ccc(Br)cc1)c1cc(Br)cc(Br)c1O [TRIBROMSALAN]
Not Active: IC50 (Thromboxane-A synthase) | IC50 ([1]; hek293) | IC50 [2] | IC50 [3] | IC50 [4] | Ki [4] | IC50 [5]

CC(c1cc2ccccc2s1)N(O)C(N)=O (stereo not given) [ZILEUTON]
Not Active: IC50 (Thromboxane-A synthase) | IC50 ([1]; hek293) | IC50 [2] | IC50 [3] | IC50 [4] | Ki [4] | IC50 [5]

MANGANESE CHLORIDE ANHYDROUS
Not Active: IC50 (Thromboxane-A synthase) | Ki (Thromboxane-A synthase) | IC50 ([1]; hek293) | Ki ([1]; hek293) | IC50 [2] | Ki [2] | IC50 [3] | Ki [3] | IC50 [4] | Ki [4] | IC50 [5] | Ki [5]

SODIUM ORTHOVANAD
Not Active: IC50 (Thromboxane-A synthase) | Ki (Thromboxane-A synthase) | IC50 ([1]; hek293) | Ki ([1]; hek293) | IC50 [2] | Ki [2] | IC50 [3] | Ki [3] | IC50 [4] | Ki [4] | IC50 [5] | Ki [5]
